{"source": "paper doi:10.1101/365908v1", "about": "(biorxiv, 2018)", "target": "T1, human GSDMD (full-length) (Homo sapiens, UniProt P57764)", "T1 sequence (P57764 1-484)": "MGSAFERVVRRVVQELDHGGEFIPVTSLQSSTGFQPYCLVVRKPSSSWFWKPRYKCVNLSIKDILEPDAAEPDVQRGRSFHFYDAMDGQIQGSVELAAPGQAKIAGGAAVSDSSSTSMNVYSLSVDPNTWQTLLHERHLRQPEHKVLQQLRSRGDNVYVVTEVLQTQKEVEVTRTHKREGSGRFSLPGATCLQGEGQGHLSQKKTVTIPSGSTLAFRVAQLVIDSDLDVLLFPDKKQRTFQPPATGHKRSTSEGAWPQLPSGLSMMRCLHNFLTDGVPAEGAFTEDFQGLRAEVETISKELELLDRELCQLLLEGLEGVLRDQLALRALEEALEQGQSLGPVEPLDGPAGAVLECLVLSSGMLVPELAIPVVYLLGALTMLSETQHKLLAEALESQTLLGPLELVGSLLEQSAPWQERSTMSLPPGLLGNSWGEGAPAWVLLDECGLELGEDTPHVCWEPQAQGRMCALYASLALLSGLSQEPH", "assay": "Tb3+/DPA liposome leakage", "assay_type": "biochemical", "conditions": "covalent (Cys191); 1 h preincubation; cleavage by 0.15 µM caspase-11; no Cu(II)"}
{"molecule": "CCN(CC)C(=S)SSC(=S)N(CC)CC", "note": "[C-23, Tetraethylthiuram disulfide]", "values": [{"measurement": "IC50", "value": "300 ± 10", "unit": "nM"}]}
